Like-named read-outs stand apart in the source and are kept apart here.
How the values were obtained:
[1] = biological target: Notch signal transduction pathway; experiment: In vitro Notch signal transduction pathway activity assay (DR215/F2 luciferase reporter); type: cell-based, human
In short: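 Human HEK293-derived DR215/F2 cells carrying Gal4-driven firefly luciferase and Notch-Gal4 fusion, exposed to compound in phenol-red-free complete IMDM at 37° C for 19 h. γ-secretase-dependent luciferase signal read with Steady-Glo; IC50 values are means of at least 3 experiments.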

[2] = Pharmacokinetic assessment in male Wistar rats (i.v.); type: in vivo, rat
Protocol: For PK evaluation, the compounds were administered i.p to male C57BL/6 mice in suspension (gelatine/saline 7.5%/0.62% in water) using an administration volume of 4 mL/kg. Blood samples were collected in tubes containing EDTA, plasma was separated by centrifugation and stored at −80° C. Liver and kidney samples (˜100 mg aliquots) were homogenized in three volumes of water using Precellys tissue homogenization tubes (precellys.com). 25 μL of each tissue homogenate was further diluted with 25 μL blank plasma to produce the final tissue homogenate for extraction. All samples were analyzed using protein precipitation followed by LC-MS/MS analysis. Briefly, 50 μL plasma or final tissue homogenate were mixed with 50 μL 0.5M HClO4/acetonitrile 9/1 (containing 200 ng/mL internal standard bosentan). Samples were stirred and 300 μL water was added followed by centrifugation at 5600 rpm (4° C., 10 min). 10 μL supernatant was analyzed by LC/MS analysis. Calibration standards in plasma were prepared the same way. The LC column and conditions used were: Phenomenex, Polar RP, 4 μm, 50×2.1 mm at 0.4 mL/min flow rate with a 3 min gradient from 95% solvent A to 95% solvent B (Solvent A: Water/ACN/HCOOH, 90:10:0.1+10 mM NH4 formate; Solvent B: Water/ACN/HCOOH, 10:90:0.1+10 mM NH4 formate). Mass spectrometric conditions were: Thermo TSQ Vantage with positive heated electrospray ionization in MS/MS mode. Compounds mass transitions monitored were m/z 320.7 to 119.9. PK parameters for all studies were calculated using Phoenix WinNonlin Software.
We next determined the stability, tissue distribution and cleavage rate in plasma, liver and kidney of the designed prodrugs in male Wistar rats. In the in vivo screen, the kinetics and distribution of the prodrugs Ac-γ-Glu-SecrI (13a) and Ac-γ-Glu-O-SecrI (13c) were compared with the active γ-secretase inhibitor SecrI (8). After i.v. administration in male Wistar rats, the disappearance of the prodrugs and the formation of the active amine-SecrI (11a), amine-O-SecrI (11b) and SecrI (8) were compared in plasma, liver and kidney (Table 7A-C). First, we determined the pharmacokinetics (PK) behavior of SecrI (8) following i.v. administration (Table 7A). […] Liver and kidney exposure were much higher, with same exposure in liver and kidney. […] The selectivity towards kidney stayed constant over time. The carbonate analogue Ac-γ-Glu-O-SecrI (13c) prodrug was converted to a lower extent than the Ac-γ-Glu-SecrI (13a) to amine-O-SecrI (11b) but more to the linker free γ-secretase inhibitor 8 (Table 7C).
Plasma and tissue concentrations of administered compound (A-C) and formed amine-SecrI (11a), amine-O-SecrI (11b) or SecrI (8) (B-C) were determined following i.v. administration in rats (no standard deviation given due to sparse sampling; n≤3 rats per time point). Numbers in parentheses represent relative amounts with the exposure of kidney arbitrarily set at each time point to 100%. […] BQL=below quantifiable limit.

SMILES: CC(=O)N[C@@H](CCC(=O)NCCNC(=O)OCCN1C(=O)[C@@H](NC(=O)[C@@](C)(O)C(=O)NCC(F)(F)C(F)(F)F)[C@@H](C)Oc2ccc(F)cc21)C(=O)O [Compound 13a, (S)-2-acetamido-5-(2-((2-((2R,3S)-7-fluoro-3-((S)-2-hydroxy-2-methyl-3-oxo-3-(2,2,3,3,3-pentafluoropropylamino)propanamido)-2-methyl-4-oxo-3,4-dihydrobenzo[b][1,4]oxazepin-5(2H)-yl)ethoxy)carbonylamino)ethylamino)-5-oxopentanoic acid]
- IC50 for blockade of the Notch pathway, range in words ([1]; DR215/F2 cell reporter assay): μM range
- IC50 ([1]; Homo sapiens, 215/F2 reporter cell line, 19 h, mean of at least 3 experiments): 2880 nM
- Liver concentration of 13a ([2]; 13a 1.6 mg/kg i.v., 4 h): BQL
- Plasma concentration of 13a ([2]; 13a 1.6 mg/kg i.v., 4 h): BQL
- Kidney concentration of 13a ([2]; 13a 1.6 mg/kg i.v., 7 h): BQL
- Liver concentration of 13a ([2]; 13a 1.6 mg/kg i.v., 7 h): BQL
- Plasma concentration of 13a ([2]; 13a 1.6 mg/kg i.v., 7 h): BQL
- conversion to amine-SecrI (11a), in words ([2]; 13a i.v., 0.25 h): high conversion
- conversion to the linker-free γ-secretase inhibitor 8, in words ([2]; i.v.): never observed significant amounts
- plasma exposure, in words ([2]; i.v.): low plasma exposure
- stability in plasma, in words ([2]; i.v.): good stability in plasma
- concentration at 0.25 h ([2]; rat, kidney, iv, 13a 1.6 mg/kg i.v., 0.25 h, read-out: Kidney concentration of 13a): 188 ng/g
- concentration at 0.5 h ([2]; rat, kidney, iv, 13a 1.6 mg/kg i.v., read-out: Kidney concentration of 13a): 12.7 ng/g
- concentration at 4 h ([2]; rat, kidney, iv, 13a 1.6 mg/kg i.v., 4 h): 16.6 ng/g
- concentration at 0.25 h ([2]; rat, liver, iv, 13a 1.6 mg/kg i.v., 0.25 h, read-out: Liver concentration of 13a): 400 ng/g
- concentration at 0.5 h ([2]; rat, liver, iv, 13a 1.6 mg/kg i.v., read-out: Liver concentration of 13a): 33.4 ng/g
- concentration at 0.25 h ([2]; rat, plasma, iv, 13a 1.6 mg/kg i.v., 0.25 h, read-out: Plasma concentration of 13a): 295 ng/mL
- concentration at 0.5 h ([2]; rat, plasma, iv, 13a 1.6 mg/kg i.v., read-out: Plasma concentration of 13a): 11.2 ng/mL

Source: patent US10632127B2, “Targeted notch pathway inhibitors” (Hoffmann-La Roche Inc., priority 2015, dated 2020)
